Here are results for 39 molecules from patent US8853246B2 (Dow AgroSciences LLC, priority 2009, dated 2014).

Series [1] has as its system Sweetpotato Whitefly-Crawler (Bemisia Tabaci). The experiment in a line: Insecticidal test for sweetpotato whitefly-crawler in foliar spray assay (col. BEMITA). The note with it: Bemisia tabaci, read-out: BEMITA 200 ppm (Corrected % Control, rating). Format: in vivo. An outline of the steps: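 Percent control, Abbott-corrected against diluent-sprayed plants, from microscope counts of live nymphs 8-9 days after treatment. Test solution at 200 ppm in 0.025% aqueous Tween 20 applied to both leaf sides of egg-infested cotton after a 5-6 day hatch period (82° F, 50% RH).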

In series [2] the test system is Green Peach Aphid (Myzus Persicae). In words: Insecticidal test for green peach aphid in foliar spray assay (col. MYZUPE). Format: in vivo. Particulars: Myzus persicae, 72 h, read-out: MYZUPE 200 ppm (Corrected % Control, rating). A digest of the protocol:
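Corrected % control derives from microscope counts of live aphids per plant, treated against diluent-only checks, 3 days after foliar spraying at ~25 °C and 40% RH. Test solution was 200 ppm in 0.025% aqueous Tween 20, applied to both leaf sides of infested cabbage seedlings, four pots each.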

Read-outs that look alike come from different tables or passages of the source. A value given as a limit tells only on which side of the number the result lay.

The molecule `Cc1nc(-c2cncc(F)c2)sc1NC(=O)C(C)CS(C)(=O)=O` (stereo not drawn) [Compound 146] yielded a melting point of 187 to 189 °C. In series [1] (sweetpotato whitefly-crawler), the pest or weed control at 200 ppm was below 80%. In addition, the pest or weed control at 200 ppm in series [2] (green peach aphid) was 80 to 100%.
Molecule `Cc1nc(-c2cncc(F)c2)sc1N(C)C(=O)C(C)CS(C)(=O)=O` (stereo not drawn) [Compound 98] returned a melting point of 105 to 109 °C. In series [1] (sweetpotato whitefly-crawler), the pest or weed control at 200 ppm was 80 to 100%. Further, in series [2] (green peach aphid), the pest or weed control at 200 ppm was in the range of 80 to 100%.
In turn, `Cc1nc(-c2cccnc2)sc1NC(=O)C(C)(C)C[S+](C)[O-]` (stereo not drawn) [Compound 94] displayed a melting point of 55 to 60 °C. In series [1] (sweetpotato whitefly-crawler), the pest or weed control at 200 ppm was below 80%. Moreover, the pest or weed control at 200 ppm in series [2] (green peach aphid) was in the range of 80 to 100%.
For `CSCCC(=O)Nc1sc(-c2cncc(F)c2)nc1C` [Compound 142], in that order: 126 to 130 °C, below 80% and 80 to 100%.
As to `CC(C)(C)OC(=O)N(C(=O)OC(C)(C)C)c1cnc(-c2cccnc2)s1` [Compound 422], the melting point was in the range of 114 to 117 °C. In addition, the pest or weed control at 200 ppm in series [1] (sweetpotato whitefly-crawler) is below 80%. In addition, the pest or weed control at 200 ppm in series [2] (green peach aphid) is 80 to 100%.
`COC(=O)Nc1sc(-c2cccnc2)nc1C` [Compound 202] gave a melting point of 159 to 160 °C. In series [1] (sweetpotato whitefly-crawler), the pest or weed control at 200 ppm was below 80%. In addition, the pest or weed control at 200 ppm in series [2] (green peach aphid) is below 80%.
For `CC(C[S+](C)[O-])C(=O)N(C)c1cnc(-c2cccnc2)s1` (stereo not drawn) [Compound 79], the melting point is 135 to 140 °C. For the same molecule, the pest or weed control at 200 ppm in series [1] (sweetpotato whitefly-crawler) is below 80%. The pest or weed control at 200 ppm in series [2] (green peach aphid) is 80 to 100%.
Consider `CSC(C)(C)CC(=O)Nc1sc(-c2cccnc2)nc1Cl` [Compound 488], for which the melting point lay within 113 to 115 °C. For the same molecule, in series [1] (Abbott's correction formula), the pest or weed control at 200 ppm was in the range of 80 to 100%. The pest or weed control at 200 ppm in series [2] (Abbott's correction formula) was in the range of 80 to 100%.
In turn, `Cc1nc(-c2cncc(F)c2)sc1NC(=O)C(C)(C)CS(C)(=O)=O` [Compound 144] yielded a melting point of 157 to 167 °C. Further, the pest or weed control at 200 ppm in series [1] (sweetpotato whitefly-crawler) was below 80%. Besides, in series [2] (green peach aphid), the pest or weed control at 200 ppm lay in the range of 80 to 100%.
For `CCN(C(=O)C(C)CSC)c1sc(-c2cccnc2)nc1Cl` (stereo not drawn) [Compound 316, N-(4-chloro-2-pyridin-3-yl-thiazol-5-yl)-N-ethyl-2-methyl-3-methylsulfanyl-propionamide], in that order: 79 to 81 °C, below 80% and 80 to 100%.
For `CCc1cc(C(=O)Nc2sc(-c3cccnc3)nc2C)no1` [Compound 387], in that order: 129 to 130 °C, 80 to 100% and below 80%.
In turn, `CC(C)(C)OC(=O)Nc1sc(-c2cncc(F)c2)nc1I` [Compound 481, tert-butyl 2-(5-fluoropyridin-3-yl)-4-iodothiazol-5-yl carbamate] gave a melting point of 148 to 149 °C. The pest or weed control at 200 ppm in series [1] (Abbott's correction formula) was below 80%. Besides, the pest or weed control at 200 ppm in series [2] (Abbott's correction formula) was below 80%.
`COCC(C)(C)OC(=O)Nc1sc(-c2cccnc2)nc1C` [Compound 199] returned a melting point of 120 to 123 °C. Also, in series [1] (sweetpotato whitefly-crawler), the pest or weed control at 200 ppm lay in the range of 80 to 100%. In addition, the pest or weed control at 200 ppm in series [2] (green peach aphid) fell in the range of 80 to 100%.
Molecule `CN(C(=O)C(C)(C)C)c1cnc(-c2cccnc2)s1` [Compound 23] returned a melting point of 102 to 105 °C. In series [1] (sweetpotato whitefly-crawler), the pest or weed control at 200 ppm was below 80%. Besides, the pest or weed control at 200 ppm in series [2] (green peach aphid) was in the range of 80 to 100%.
The molecule `Cc1nc(-c2cccnc2)sc1NC(=O)[C@H](C)NC(=O)OC(C)(C)C` [Compound 187] came in with a melting point of 166 to 169 °C. Besides, the pest or weed control at 200 ppm in series [1] (sweetpotato whitefly-crawler) is below 80%. In addition, the pest or weed control at 200 ppm in series [2] (green peach aphid) is 80 to 100%.
As for `CSCC(C)C(=O)N(C)c1sc(-c2cncc(Br)c2)nc1C` (stereo not drawn) [Compound 296], the melting point lay within 79 to 81 °C. For the same molecule, in series [1] (sweetpotato whitefly-crawler), the pest or weed control at 200 ppm is 80 to 100%. For the same molecule, the pest or weed control at 200 ppm in series [2] (green peach aphid) lay in the range of 80 to 100%.
`CSCCC(=O)N(C)c1cnc(-c2ccc(Cl)nc2)s1` [Compound 70] gave a melting point of 160 to 164 °C. In addition, in series [1] (sweetpotato whitefly-crawler), the pest or weed control at 200 ppm is below 80%. Moreover, the pest or weed control at 200 ppm in series [2] (green peach aphid) is below 80%.
In turn, `CCN(C(=O)c1cnn(C)c1C(F)(F)F)c1sc(-c2cccnc2)nc1Cl` [Compound 577] returned a melting point of 115 to 117 °C. Also, the pest or weed control at 200 ppm in series [1] (Abbott's correction formula) was below 80%. The pest or weed control at 200 ppm in series [2] (Abbott's correction formula) fell in the range of 80 to 100%.
In turn, `Cc1nc(-c2cncc(F)c2)sc1NC(=O)C(C)(C)C[S+](C)[O-]` (stereo not drawn) [Compound 143] displayed a melting point of 160 to 163 °C. The pest or weed control at 200 ppm in series [1] (sweetpotato whitefly-crawler) was below 80%. Further, in series [2] (green peach aphid), the pest or weed control at 200 ppm lay within 80 to 100%.
For `CC(CS(C)(=O)=O)C(=O)N(C)c1sc(-c2cncc(F)c2)nc1Cl` (stereo not drawn) [Compound 271] the same measures were 151 to 154 °C, 80 to 100% and 80 to 100%.
Consider `Cc1nc(-c2cccnc2)sc1NC(=O)CCCCl` [Compound 209], for which the melting point was 144 to 147 °C. Besides, the pest or weed control at 200 ppm in series [1] (sweetpotato whitefly-crawler) was below 80%. The pest or weed control at 200 ppm in series [2] (green peach aphid) was 80 to 100%.
The molecule `CC(C)C(=O)N(C)c1sc(-c2cncc(F)c2)nc1Cl` [Compound 263] showed a melting point of 123 to 125 °C. The pest or weed control at 200 ppm in series [1] (sweetpotato whitefly-crawler) lay in the range of 80 to 100%. For the same molecule, the pest or weed control at 200 ppm in series [2] (green peach aphid) lay in the range of 80 to 100%.
With `Cc1nc(-c2cncc(F)c2)sc1NC(=O)C(C)C[S+](C)[O-]` (stereo not drawn) [Compound 145], the melting point was 194 to 198 °C. Besides, in series [1] (sweetpotato whitefly-crawler), the pest or weed control at 200 ppm is below 80%. Further, the pest or weed control at 200 ppm in series [2] (green peach aphid) fell in the range of 80 to 100%.
Molecule `CN(C(=O)CCS(C)(=O)=O)c1sc(-c2cncc(F)c2)nc1Br` [Compound 455] registered a melting point of 198 to 201 °C. Besides, the pest or weed control at 200 ppm in series [1] (Abbott's correction formula) is 80 to 100%. Also, in series [2] (Abbott's correction formula), the pest or weed control at 200 ppm lay within 80 to 100%.
As for `CCOC(=O)c1cncc(-c2nc(C)c(NC(=O)OC(C)(C)C)s2)c1` [Compound 160], the melting point fell in the range of 124 to 128 °C. In addition, the pest or weed control at 200 ppm in series [1] (sweetpotato whitefly-crawler) was below 80%. Further, the pest or weed control at 200 ppm in series [2] (green peach aphid) was below 80%.
The molecule `CN(C(=O)C(C)(C)C[S+](C)[O-])c1cnc(-c2cncc(F)c2)s1` (stereo not drawn) [Compound 85] registered a melting point of 155 to 159 °C. In addition, the pest or weed control at 200 ppm in series [1] (sweetpotato whitefly-crawler) was 80 to 100%. In addition, in series [2] (green peach aphid), the pest or weed control at 200 ppm lay in the range of 80 to 100%.
`COCCOC(=O)Nc1sc(-c2cccnc2)nc1C` [Compound 379] returned a melting point of 131 to 134 °C. Moreover, in series [1] (sweetpotato whitefly-crawler), the pest or weed control at 200 ppm was below 80%. In addition, the pest or weed control at 200 ppm in series [2] (green peach aphid) lay in the range of 80 to 100%.
For `Cc1nc(-c2cccnc2)sc1N(C)C(=S)Nc1ccc(Cl)cc1` [Compound 398] the same measures were 53 to 54 °C, 80 to 100% and below 80%.
For `CN(C(=O)c1cnn(C)c1)c1sc(-c2cncc(F)c2)nc1Cl` [Compound 268], in that order: 151 to 155 °C, 80 to 100% and 80 to 100%.
As to `CCCCOC(=O)Nc1sc(-c2cccnc2)nc1C` [Compound 377], the melting point lay in the range of 108 to 110 °C. For the same molecule, in series [1] (sweetpotato whitefly-crawler), the pest or weed control at 200 ppm was 80 to 100%. The pest or weed control at 200 ppm in series [2] (green peach aphid) was below 80%.
Molecule `CSCC(=O)Nc1sc(-c2cccnc2)nc1C` [Compound 372] showed a melting point of 164 to 167 °C. Moreover, in series [1] (sweetpotato whitefly-crawler), the pest or weed control at 200 ppm is 80 to 100%. In series [2] (green peach aphid), the pest or weed control at 200 ppm lay in the range of 80 to 100%.
`Cc1nc(-c2cncc(F)c2)sc1NC(=O)C(C)C` [Compound 140]: the melting point was in the range of 155 to 159 °C. Further, the pest or weed control at 200 ppm in series [1] (sweetpotato whitefly-crawler) was below 80%. Further, the pest or weed control at 200 ppm in series [2] (green peach aphid) was 80 to 100%.
With `CN(C(=O)CC[S+](C)[O-])c1sc(-c2cncnc2)nc1Cl` (stereo not drawn) [Compound 510], the melting point lay in the range of 137 to 140 °C. Further, the pest or weed control at 200 ppm in series [1] (Abbott's correction formula) lay in the range of 80 to 100%. Moreover, in series [2] (Abbott's correction formula), the pest or weed control at 200 ppm lay within 80 to 100%.
Molecule `Cc1nc(-c2cccnc2)sc1NC(=O)OCC(F)(F)F` [Compound 380] registered a melting point of 170 to 178 °C. The pest or weed control at 200 ppm in series [1] (sweetpotato whitefly-crawler) was below 80%. In series [2] (green peach aphid), the pest or weed control at 200 ppm is below 80%.
On to `Cc1nc(-c2cncc(F)c2)sc1N(C)C(=S)NC1CC1` [Compound 519, 3-cyclopropyl-1-[2-(5-fluoro-pyridin-3-yl)-4-methyl-thiazol-5-yl]-1-methyl-thiourea], for which the melting point fell in the range of 117 to 119 °C. Also, the pest or weed control at 200 ppm in series [1] (Abbott's correction formula) is below 80%. In addition, the pest or weed control at 200 ppm in series [2] (Abbott's correction formula) is 80 to 100%.
Regarding `Cc1nc(-c2ccc(Cl)nc2)sc1NC(=O)OC(C)(C)C` [Compound 149], the melting point lay within 154 to 157 °C. In series [1] (sweetpotato whitefly-crawler), the pest or weed control at 200 ppm is below 80%. The pest or weed control at 200 ppm in series [2] (green peach aphid) was below 80%.
The molecule `Cc1nc(-c2cncc(F)c2)sc1N(C)C(=O)C(C)C` [Compound 41] came in with a melting point of 123 °C. The pest or weed control at 200 ppm in series [1] (sweetpotato whitefly-crawler) lay within 80 to 100%. The pest or weed control at 200 ppm in series [2] (green peach aphid) lay in the range of 80 to 100%.
Turning to `Cc1nn(CC(=O)N(C)c2sc(-c3cccnc3)nc2Cl)c(C)c1S(=O)(=O)N(C)C` [Compound 390], the melting point was in the range of 185 to 186 °C. The pest or weed control at 200 ppm in series [1] (sweetpotato whitefly-crawler) is 80 to 100%. For the same molecule, the pest or weed control at 200 ppm in series [2] (green peach aphid) was below 80%.
For `COC(=O)CCC(=O)N(C)c1cnc(-c2cccnc2)s1` [Compound 27] the same measures were 127 to 129 °C, below 80% and 80 to 100%.
